Results taken from the supplement of paper PMC13380429.

Legend:
Settings in all cases: 72 h
Caco-2 [1] = experiment: cell viability relative to DMSO; higher = less toxic
Calu-3 [2] = experiment: as above
HepG2 [3] = experiment: as above
U2OS [4] = experiment: as above
Vero E6 [5] = experiment: as above
Caco-2 [6] = experiment: relative viability EC50 (midpoint between 100% and the lowest measured viability); higher = less toxic
HepG2 [7] = experiment: as above
U2OS [8] = experiment: as above
Vero E6 [9] = experiment: as above
Caco-2 [10] = experiment: drug sensitivity score (DSS) for viability; higher = more toxic; extreme values may be limits of the assay
Calu-3 [11] = experiment: as above
HepG2 [12] = experiment: as above
U2OS [13] = experiment: as above
Vero E6 [14] = experiment: as above
Calu-3 [15] = experiment: relative viability EC50 (midpoint between 100% and the lowest measured viability); higher = less toxic

SMILES	cell viability (Caco-2 [1]; 1 nM) [%]	cell viability (Caco-2 [1]; 10 nM) [%]	cell viability (Caco-2 [1]; 100 nM) [%]	cell viability (Caco-2 [1]; 1000 nM) [%]	cell viability (Caco-2 [1]; 10000 nM) [%]	cell viability (Calu-3 [2]; 1 nM) [%]	cell viability (Calu-3 [2]; 10 nM) [%]	cell viability (Calu-3 [2]; 100 nM) [%]	cell viability (Calu-3 [2]; 1000 nM) [%]	cell viability (Calu-3 [2]; 10000 nM) [%]	cell viability (HepG2 [3]; 1 nM) [%]	cell viability (HepG2 [3]; 10 nM) [%]	cell viability (HepG2 [3]; 100 nM) [%]	cell viability (HepG2 [3]; 1000 nM) [%]	cell viability (HepG2 [3]; 10000 nM) [%]	cell viability (U2OS [4]; 1 nM) [%]	cell viability (U2OS [4]; 10 nM) [%]	cell viability (U2OS [4]; 100 nM) [%]	cell viability (U2OS [4]; 1000 nM) [%]	cell viability (U2OS [4]; 10000 nM) [%]	cell viability (Vero E6 [5]; 1 nM) [%]	cell viability (Vero E6 [5]; 10 nM) [%]	cell viability (Vero E6 [5]; 100 nM) [%]	cell viability (Vero E6 [5]; 1000 nM) [%]	cell viability (Vero E6 [5]; 10000 nM) [%]	relative viability EC50 (Caco-2 [6]) [µM]	relative viability EC50 (HepG2 [7]) [µM]	relative viability EC50 (U2OS [8]) [µM]	relative viability EC50 (Vero E6 [9]) [µM]	drug sensitivity score (Caco-2 [10])	drug sensitivity score (Calu-3 [11])	drug sensitivity score (HepG2 [12])	drug sensitivity score (U2OS [13])	drug sensitivity score (Vero E6 [14])	relative viability EC50 (Calu-3 [15]) [µM]
Cc1ccc(CCCO)c(NCc2ccc3nc(NCCCN4CCOCC4)n(Cc4nc(C)ccc4O)c3c2)c1	101	97.7	97.6	101	90	115	96.4	104	93.6	74.8	89.5	100	103	109	89.1	98.1	97.1	97.6	96.5	95.1	99.6	92.7	97.7	102	102	> 10	> 10	> 10	> 10	0	1.9	0	0	0	–
O=C(N[C@H](Cc1ccccc1)C(=O)O)c1sc2cc(F)ccc2c1Cl [CU-CPT-4a]	99.3	102	91.1	93.5	102	–	–	–	–	–	107	106	92.7	90.1	100	97.2	97.1	94.4	98.2	96.7	107	103	102	99.1	104	> 10	> 10	> 10	> 10	0	–	0	0	0	–
CC(=O)O[C@]1(C(C)=O)CC[C@H]2[C@@H]3C=C(Cl)C4=CC(=O)CC[C@]4(C)[C@H]3CC[C@@]21C [chlormadinone-acetate]	101	106	115	98.8	103	–	–	–	–	–	98.1	98.8	100	92	112	97.2	92.7	96.1	90.6	95	93.2	96.9	91.9	92.5	90	> 10	> 10	> 10	> 10	0	–	0	0	0	–
CCCCCCCCCCCCCCCCCCO [octadecan-1-ol]	–	–	–	–	–	–	–	–	–	–	–	–	–	–	–	–	–	–	–	–	99.2	103	102	94.2	107	–	–	–	> 10	–	–	–	–	0	–
Cc1ccc(C)c([C@H](O)CNC(C)C)c1 [benzenemethanol,-2,5-dimethyl-[[(1-methylethyl)amino]methyl]]	102	96.3	92.6	93.7	96.3	–	–	–	–	–	111	92.6	101	100	104	101	99.4	102	99.2	102	103	107	98.4	103	101	> 10	> 10	> 10	> 10	0	–	0	0	0	–
CCOC(=O)CSCCC1NC(C(=O)O)CS1 (stereo not given) [letosteine]	90.8	80.7	97.4	97.9	75.5	97.6	97.1	116	96.9	101	80.5	96.4	98.7	95.6	92.9	101	102	107	99.6	103	75.4	102	74.4	98.3	93.3	> 10	> 10	> 10	–	0	0	0	0	1.1	> 10
CNCCC=C1c2ccccc2CCc2ccccc21 [nortriptyline]	108	86.1	96.4	97.7	70	100	98.7	99.4	96.5	82.1	110	106	112	119	65	99.5	96.8	98.1	97.4	93.8	106	106	102	90	79.8	–	–	> 10	> 10	1.6	0.9	1	0	1.6	> 10
CCc1nc(-c2cccc(C)c2)c(-c2ccnc(NC(=O)c3ccccc3)c2)s1 [TAK-715]	97.5	102	92	78.1	65.6	90.5	101	91.8	93.7	78.2	93	94.6	94.6	94.6	73.5	100	103	98.3	93.6	85.5	93.5	102	94.8	90.6	82.2	–	–	> 10	> 10	4.3	1	1.8	0.4	0.8	> 10
CN(C)CCN(Cc1ccccc1)c1ccccn1 [tripelennamine]	–	–	–	–	–	–	–	–	–	–	108	111	101	89.7	78.9	–	–	–	–	–	110	110	105	102	97.1	–	> 10	–	> 10	–	–	1.8	–	0	–
Cc1nnc(-c2ccc3occ(-c4ccc([S+](C)[O-])cc4)c3c2)o1 (stereo not given) [TCS2002]	103	96.7	98.5	108	108	–	–	–	–	–	94	97.2	99.3	93	112	102	103	101	99.3	98.5	96.1	95.9	99.1	90.6	101	> 10	> 10	> 10	> 10	0	–	0	0	0	–
O=C(O[C@H]1C[N+]2(CCCOc3ccccc3)CCC1CC2)C(O)(c1cccs1)c1cccs1 [aclidinium]	105	87.8	99.6	94.3	104	–	–	–	–	–	93.5	98.9	91.8	101	92.9	98.4	95.9	97.1	97.2	99.1	103	95.5	101	96.6	98.7	> 10	> 10	> 10	> 10	0	–	0	0	0	–
CN(C)CCOC(=O)C(c1ccccc1)C1(O)CCCC1 (stereo not given) [cyclopentolate]	96.9	97.6	93	100	102	–	–	–	–	–	103	115	97.6	111	91.3	100	96.5	98.4	97.9	98.5	99.1	103	102	101	107	> 10	> 10	> 10	> 10	0	–	0	0	0	–
COc1ccc(CN(CCN(C)C)c2ccccn2)cc1 [mepyramine]	–	–	–	–	–	101	113	112	106	93	99.8	95.7	91	102	92.8	98	99.8	103	101	95.9	95.7	93.1	95.1	98.5	102	–	> 10	> 10	> 10	–	0	0	0	0	> 10
CC(C)/N=c1\cc2n(-c3ccc(Cl)cc3)c3ccccc3nc-2cc1Nc1ccc(Cl)cc1 [clofazimine]	106	101	98.3	84.5	60.4	101	97.6	91.3	98.1	94.4	94.1	105	89.8	97	68.3	98	100	101	98.1	91.6	101	99.6	103	104	91.3	–	–	> 10	> 10	3.8	0	1.9	0	0	> 10
O=Cc1ccc(CO)o1 [5-HMF]	–	–	–	–	–	96.6	98.2	97.3	94.5	104	–	–	–	–	–	99.6	99.8	104	102	106	103	99.9	99.7	105	97.3	–	–	> 10	> 10	–	0	–	0	0	> 10
C=CC(=O)Nc1cccc(Oc2nc(Nc3ccc(N4CCN(C)CC4)cc3)nc3ccsc23)c1 [olmutinib]	99.2	98.3	90.9	83.5	69	110	105	89	68.4	14.8	95	93.5	100	99.6	51	100	101	96.6	92.7	59.4	100	98.7	96.7	92.2	5.1	–	–	–	2.49	3.2	8.3	2.6	3.2	6.5	1.35
Cc1ccc([N+](=O)[O-])cc1O [2-methyl-5-nitrophenol]	96.9	105	101	94.3	95.3	–	–	–	–	–	106	91	99.4	100	102	108	96	101	96.1	102	99.9	94.4	94.3	98.6	96.2	> 10	> 10	> 10	> 10	0	–	0	0	0	–
